Data on two compounds can be found in patent US20170314056A1, “METHOD OF USING NEAR INFRARED FLUORESCENT DYES FOR IMAGING AND TARGETING CANCERS” (priority 2010, published 2017).

The subject of data set [1] is human tumor xenografts. Put plainly: NIR imaging of human tumor xenografts in live mice. As to conditions: for tumor imaging of subcutaneous xenografts: Kodak multimodal-imaging system; for dye uptake and signal in human xenograft implants at various sites: subcutaneous, orthotopic or intraosseous tumors, i.p. or i.v. dye; for duration of dye uptake and retention in tumors after dye administration: tumors in live mice. The source says: […] After variable time of the dye injection, the mice were anesthetized and imaged by using the Kodak animal in vivo imaging system, which can obtain both the NIR signal and the X-ray picture and these images were merged. […] IR-783 uptake into metastatic human prostate tumors was studied in ARCaP model.
Uptake and accumulation of cyanine dyes in tumors in live mice Human cancer cells were implanted (1×10^6) either subcutaneously, orthotopically, or intraosseously into 4 to 6 week old athymic nude mice (National Cancer Institute, Frederick, Md.) according to our previously published procedures (26, 27). All animal studies were conducted under the Emory University Animal Care and Use Committee guidelines. […] Whole body optical imaging was taken at 24 h using a Kodak Imaging Station 4000 MM (New Haven, Conn.) equipped with fluorescent filter sets (excitation/emission, 800/850 nm). The field of view (FOV) was 120 mm in diameter. The frequency rate for NIR excitation light was 2 mW/cm^2. The camera settings included maximal gain, 2×2 binning, 1024×1024 pixel resolution, and an exposure time of 5 sec. In some instances, live mice were also imaged by an Olympus OV100 Whole Mouse Imaging System (excitation 762 nm; emission 800 nm) (Olympus Corp., Tokyo, Japan), containing a MT-20 light source (Olympus Biosystems, Planegg, Germany) and DP70 CCD camera (Olympus). Prior to imaging, mice were anesthetized with ketamine (75 mg/kg). During imaging, mice were maintained in an anesthetized state.
Human renal cancer cells (ACHN and SN12C) were implanted (1×10^6) subcutaneously and intraosseously into 4 to 6 week old athymic nude mice, respectively. And, we also implanted Caki-1 cells into the renal capsule of athymic nude mice to establish subrenal capsule xenografts of renal cancer as previously described.^70 When tumor sizes reached between 1-6 mm in diameter, as assessed by X-ray or by palpation, mice were […] Whole body optical imaging was taken at 24 h using a Kodak Imaging Station Imaging System 4000 MM (New Haven, Conn.) equipped with fluorescent filter sets (excitation/emission, 800/850 nm). The field of view (FOV) was 120 mm in diameter. The frequency rate for NIR excitation light was 2 mW/cm^2. The camera settings included maximal gain, 2×2 binning, 1024×1024 pixel resolution, and an exposure time of 5 sec. After whole body NIR imaging, the dissected organs and tumors were subjected to ex vivo imaging. Prior to imaging, mice were anesthetized with ketamine (75 mg/kg). During imaging, mice were maintained in an anesthetized state.
(In xenograft studies the graft and the host belong to different species.)

Data set [2] in a line: Dye distribution and clearance in normal mouse tissues. It counts as in vivo. The source says:
One mouse was sacrificed at 96 hrs after IR-780 injection through tail vein, and isolated tissues and organs excised from mice were cut into frozen slides and were imaged under confocal microscope.
To assess tissue distribution of these dyes, athymic mice without tumor implantation were sacrificed at 0, 6 and 80 hrs (N=3 each) after i.v. injection of IR-783 dye at a dose of 10 nmol/20 g. Dissected organs were subjected to NIR imaging by a Kodak Imaging Station 4000 MM. In another study the mice bearing orthotopic ARCaPM tumors were subjected to NIR imaging at 0.5, 24, 48, 72 and 96 hrs after IR-783 i.v. administration at a dose of 10 nmol/20 g. In some cases, we also assessed the biodistribution of NIR dye by a spectral method in tissues harvested from athymic mice bearing subcutaneous ARCaPM tumors (N=6). Tumors and normal host organs were homogenized in PBS, centrifuged at 15,000×g for 15 minutes to recover the supernatant fraction after the mice were injected i.p. with IR-783 at a dose of 10 nmol/20 g. The presence of the organic dyes (parental IR-783 and its metabolites) in tissues was estimated spectrophotometrically at an emission wavelength of 820 nm by a PTI Near Infrared Fluorometer QuantaMaster™ 50 (PTI, Birmingham, N.J.) equipped with a 75-watt xenon arc lamp under 500 to 1700 nm InGaAs detector using known concentrations of IR-783 as the standard (28). In other cases, tumor tissues harvested from mice were stored in formalin from 1 week to 3 months, and fluorescence images were obtained and compared.

Data set [3] relates to ARCaPM cells. Put plainly: Live-cell kinetics of dye uptake in prostate cancer cells. It counts as cell-based, human. As to conditions: for uptake of dye in ARCaPM cells compared with normal P69 cells: 20 μM dye, live-cell spinning disc confocal. As for the experimental part: ARCaPM Cells were plated on live-cell imaging chambers from World Precision Instrument (Sarasota, Fla.) overnight. Cells were treated with IR-780 with different concentrations and were imaged using a Perkin-Elmer Ultraview ERS spinning discconfocal microscope. This system was mounted on a Zeiss Axiovert 200m inverted microscope equipped with a 37° C. stage warmer, incubator, and CO2 perfusion. A x63 or x100 Zeiss oil objective (numerical aperture, 1.4) was used for all images and a Z-stack was created using the attached piezo electric z-stepper motor. The 633 nm laser line of an argon ion laser (set at 60% power) was used to excite the IR-780 organic dye. For each comparison, the exposure time and laser intensity was kept identical for accurate intensity measurement. Pixel intensity was quantitated using Metamorph 6.1 (Universal Imaging, Downingtown, Pa.) and the mean pixel intensity was generated as grey level using the Region Statistics feature on the software.
Cells were plated on live-cell imaging chambers (World Precision Instrument, Sarasota, Fla.) overnight. Cells were exposed to cyanine dyes at different concentrations and dye uptake was evaluated by a Perkin-Elmer Ultraview ERS spinning disc confocal microscope. This system was mounted on a Zeiss Axiovert 200m inverted microscope equipped with a 37° C. stage warmer, incubator, and constant CO2 perfusion. A 63× or 100× Zeiss oil objective (numerical aperture, 1.4) was used for live cell images and a Z-stack was created using the attached piezoelectric z-stepper motor. The 633 nm laser line of an argon ion laser (set at 60% power) was used to excite the cyanine dyes. […] For comparative studies, the exposure time and laser intensity were kept identical for accurate intensity measurements. Pixel intensity was quantified using Metamorph 6.1 (Universal Imaging, Downingtown, Pa.) and the mean pixel intensity was generated as grey level using the Region Statistics feature on the software (23). To determine the dye uptake by the mitochondria, the mitochondrial tracking dye Mito Tracker Orange CMTMROS (Molecular Probes, Carlsbad, Calif.) was used. To determine the dye localization in lysosomes, a lysosome tracking dye, Lyso Tracker Green DND-26 (Molecular Probes, Carlsbad, Calif.), was selected. Imaging of mitochondrial and/or lysosome localization of the cyanine dye was conducted under confocal microscopy (24).
To determine if the cyanine dye uptake and accumulation in cancer cells was dependent upon OATPs, cells were preincubated with 250 μM bromosulfophthalein (BSP), a competitive inhibitor of organic anion transporting peptides (OATPs) (25), for 5 minutes prior to incubating the cells with cyanine dyes. The uptake and accumulation of cyanine dyes in the presence and absence of BSP were conducted in the stage warmer incubator for a period of 35 minutes. The levels of cyanine dye taken up and accumulated in normal prostate (P69) and prostate cancer (ARCaPM) cells were determined and compared on a real-time basis.

The mark [4] stands for this setting: mice bearing subcutaneous ACHN tumors.

Entries after “also recorded” stand apart in the source; their conditions may differ.

As to “2-[2-[2-Chloro-3-[2-[1,3-dihydro-3,3-dimethyl-1-(4-sulfobutyl)-2H-indol-2-ylidene]-ethylidene]-1-cyclohexen-1-yl]-ethenyl]-3,3-dimethyl-1-(4-sulfobutyl)-3H-indolium [IR-783]”, in data set [1] (5 nmol dye through tail vein), the “tumor imaging of subcutaneous xenografts” value is given as “clear tumor images can be detected”. In data set [1] (metastatic prostate tumors (ARCaP orthotopic) in mice), the “time after dye at which optimal images of tumors and metastases are obtained” value lay within 24 to 48 h. In data set [1] (setting [4]), the “signal in tumor specimens, ex vivo analysis” value is reported as “higher signals in tumor specimens” and the “signals in other normal organs, ex vivo analysis” value was “very low signals”. Besides, the “dye uptake by orthotopic ARCaPM tumors” value in data set [1] (orthotopic ARCaPM (ARCaP) tumors in mice) was “strong uptake; also recorded: active uptake; also recorded: dye uptake and retention seen in an ARCaPM orthotopic tumor”. Further, the “tumor signal in whole-body NIR imaging” value in data set [1] (subcutaneous renal tumors (ACHN), Kodak System) is recorded as “signals could be clearly visualized in the tumors”. In data set [1], the “dye uptake and signal in human xenograft implants at various sites” value is on record as “found in a broad spectrum of human xenograft implants; also recorded: intense signals were clearly associated with the tumors; also recorded: both tumors were detected”; the “duration of dye uptake and retention in tumors after dye administration” value is listed as “up to 15 days”. In addition, the “signal at anatomical sites of implanted tumors” value in data set [1] (subrenal capsule (Caki-1) and intraosseous (SN12C) renal tumor xenografts) was “strong signals”. In addition, in data set [1] (tumors in mice), the “size of tumors that can be imaged” value is reported as “approximately 1 mm^3” and the “tumor weight that can be imaged” value was “approximately 1 mg”. For the same compound, the organs accumulating dye result in data set [2] (6 hrs after i.v. 10 nmol/20 g, normal mice) was “accumulate in mouse liver, kidney, lung and heart”. Also, in data set [2] (80 hrs after i.v. 10 nmol/20 g, normal mice), the “dye in vital organs at 80 hrs” value is on record as “completely cleared”. For the same compound, the “time by which dye was cleared from all mouse vital organs” value in data set [2] (i.v. 10 nmol/20 g, normal mice) is no more than 80 h. In addition, the “time period within which dye was cleared from normal organs” value in data set [2] (liver, kidney, testis and seminal vesicles, live animals) is no more than 96 h. Besides, in data set [3], the “uptake of dye in ARCaPM cells compared with normal P69 cells” value is listed as “significant uptake”. In addition, in data set [3] (ARCaP cells), the “early phase of uptake and retention completed” value came out at 12 min; the “late phase of uptake and retention completed” value is 30 min.

With `CCCN1C(=CC=C2CCCC(C=CC3=[N+](CCC)c4ccccc4C3(C)C)=C2Cl)C(C)(C)c2ccccc21.[I-]` [IR-780, 2-[2-[2-Chloro-3-[(1,3-dihydro-3,3-dimethyl-1-propyl-2H-indol-2-ylidene)ethylidene]-1-cyclohexen-1-yl]ethenyl]-3,3-dimethyl-1-propylindolium iodide], in data set [1] (5 nmol dye through tail vein), the “tumor imaging of intratibial ARCaPM tumors” value is listed as “clear tumor images can be detected” and the “tumor imaging of subcutaneous xenografts” value was “clear tumor images can be detected in all subcutaneous tumors”. Further, in data set [1], the “dye uptake and signal in human xenograft implants at various sites” value is given as “found in a broad spectrum of human xenograft implants”; the “duration of dye uptake and retention in tumors after dye administration” value is on record as no more than 15 days. Besides, the “dye uptake in normal mouse tissues” value in data set [2] (96 hrs after injection through tail vein, frozen slides, confocal) is reported as “all mouse tissues failed to uptake this organic dye”. Further, in data set [3], the “uptake of dye in ARCaPM cells compared with normal P69 cells” value is “big difference in IR-780 uptake by cancer cells and normal cells”. In addition, the “dye concentration needed to measure uptake into cancer cells in culture” value in data set [3] (time course and concentration dependence) lay within 20 to 50 µM.
